Assay results published in PubChem BioAssay (NCI).
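48-hour exposure; five concentrations; linearly interpolated endpoints. At the GI50, growth is halved. TGI is the concentration that stops growth completely.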

Assays:
Test in all cases: inhibition of tumour cell growth, NCI panel, 48 h
HOP-62 NSCLC = tested on: HOP-62 NSCLC
UACC-257 melanoma = tested on: UACC-257 melanoma
A549 NSCLC = tested on: A549 NSCLC
U251 CNS = tested on: U251 CNS
MALME-3M melanoma = tested on: MALME-3M melanoma
COLO 205 colon = tested on: COLO 205 colon
SF-295 CNS = tested on: SF-295 CNS
OVCAR-4 ovarian = tested on: OVCAR-4 ovarian
OVCAR-5 ovarian = tested on: OVCAR-5 ovarian
SK-OV-3 ovarian = tested on: SK-OV-3 ovarian

SMILES	GI50 (HOP-62 NSCLC) [µM]	TGI (HOP-62 NSCLC) [µM]	GI50 (UACC-257 melanoma) [µM]	TGI (UACC-257 melanoma) [µM]	GI50 (A549 NSCLC) [µM]	TGI (A549 NSCLC) [µM]	GI50 (U251 CNS) [µM]	TGI (U251 CNS) [µM]	GI50 (MALME-3M melanoma) [µM]	TGI (MALME-3M melanoma) [µM]	GI50 (COLO 205 colon) [µM]	TGI (COLO 205 colon) [µM]	GI50 (SF-295 CNS) [µM]	TGI (SF-295 CNS) [µM]	GI50 (OVCAR-4 ovarian) [µM]	TGI (OVCAR-4 ovarian) [µM]	GI50 (OVCAR-5 ovarian) [µM]	TGI (OVCAR-5 ovarian) [µM]	GI50 (SK-OV-3 ovarian) [µM]	TGI (SK-OV-3 ovarian) [µM]
COC(=O)CCCCCCCCC(=O)c1c(C)[nH]c(/C=C2\N=C(c3ccc[nH]3)C=C2OC)c1C	11.2	> 57.9	14.4	87.8	5.18	> 50.2	10.9	> 100	> 22.9	> 100	> 100	> 100	> 58.8	> 100	> 85.9	> 100	> 28.7	> 100	> 100	> 100
COc1cc2ccc(C(=O)O)cc2cc1OC	–	> 100	–	> 100	–	> 100	–	> 100	–	> 100	–	> 100	–	> 100	–	> 100	–	> 100	–	> 100
Cc1cccc2c1C(=O)OC2(c1cccc2ccccc12)c1cccc2ccccc12	–	> 100	–	> 100	–	> 100	–	> 100	–	> 100	–	> 100	–	> 100	–	> 100	–	> 100	–	> 100
C=CCN1C(=O)C/C(=C2/CCC(=O)N2CC=C)C1=O	–	> 100	–	> 100	–	> 100	–	> 100	–	> 100	–	> 100	–	> 100	–	> 100	–	> 100	–	> 100
O=C(O)c1ccccc1/C=C1/Nc2ccccc2C1=O	–	> 100	–	> 100	–	> 100	–	> 100	–	> 100	–	> 100	–	> 100	–	> 100	–	> 100	–	> 100
S=C1NC2=C(CCOc3c2ccc2ccccc32)C(c2ccc(Cl)cc2)N1 (stereo not given)	70.8	> 100	45.4	> 100	45.1	> 100	35.5	> 100	23.8	73.8	24.5	> 100	31.9	> 100	> 100	> 100	73.9	> 100	> 100	> 100
Nc1cc2ccncc2c2ccccc12	13.7	> 100	13.6	29.7	18.9	> 100	21	> 100	15.7	31.4	6.89	20.8	10.8	57.4	20.2	> 100	18.7	88.1	13.6	87.4
CCOC(=O)CCC(NC(=O)c1ccc(Nc2nc3cc(N)cc(N)c3nc2-c2ccccc2)cc1)C(=O)OCC (stereo not given)	> 44.1	> 63	6.04	13.7	27.8	> 100	> 44.7	> 66	8.1	15.8	> 29.7	> 100	> 42	> 66.3	44.5	> 100	57.1	> 93.2	22	47.7
